The source made the active and inactive calls. The calls are words filed in the database; no cut-off is given here. *1 amine or outer side, *2 acyl side, *3 side chain or, on linkers, in order; H or OH if unused. Where a SMILES comes first, the peptide text is derived from it. Bridges are numbered along the chain shown (N, C = ends). The star is where a group is joined. X1 = O=C(O)c1cc(C(=O)*)ccc1-c1c2ccc(=O)cc-2oc2cc(O)ccc12; mXylylene = c1cc(C[*:1])cc(C[*:2])c1
Tests used:
[1] = tested on: SW480; assay: Antiproliferative activity against human SW480 cells at 20 uM incubated for 72 hrs by MTT assay; format: functional, cell-based
[2] = molecular target: T1, Catenin beta-1 (Mus musculus, UniProt Q02248); assay: Binding affinity to mouse GST tagged beta catenin (133 to 665 residues) expressed in Escherichia coli BL21 (DE3) cells incubated for 1 hr
T1 sequence (Q02248 whole entry): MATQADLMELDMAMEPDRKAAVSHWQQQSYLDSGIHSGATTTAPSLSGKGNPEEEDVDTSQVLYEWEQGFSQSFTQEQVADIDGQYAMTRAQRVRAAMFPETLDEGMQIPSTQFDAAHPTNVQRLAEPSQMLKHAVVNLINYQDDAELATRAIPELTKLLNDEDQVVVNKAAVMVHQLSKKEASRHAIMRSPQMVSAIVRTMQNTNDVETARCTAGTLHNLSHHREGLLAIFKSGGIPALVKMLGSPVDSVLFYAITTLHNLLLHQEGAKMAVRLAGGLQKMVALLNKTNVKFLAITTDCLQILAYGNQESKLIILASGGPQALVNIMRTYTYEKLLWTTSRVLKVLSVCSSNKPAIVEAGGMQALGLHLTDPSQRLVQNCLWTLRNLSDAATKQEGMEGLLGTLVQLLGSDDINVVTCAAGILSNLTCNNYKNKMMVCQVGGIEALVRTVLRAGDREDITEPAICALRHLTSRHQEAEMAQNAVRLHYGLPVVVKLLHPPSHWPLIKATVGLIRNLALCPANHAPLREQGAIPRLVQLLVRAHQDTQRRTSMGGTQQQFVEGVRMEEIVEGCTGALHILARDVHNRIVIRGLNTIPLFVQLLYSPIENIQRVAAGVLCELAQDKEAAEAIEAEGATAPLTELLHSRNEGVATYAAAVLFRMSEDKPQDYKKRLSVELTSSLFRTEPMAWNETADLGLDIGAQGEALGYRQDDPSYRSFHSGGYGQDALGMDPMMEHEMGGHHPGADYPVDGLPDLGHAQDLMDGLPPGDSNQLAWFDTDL

`CC[C@H](C)[C@@H]1NC(=O)[C@@H](NC(=O)[C@H](CCC(=O)O)NC(=O)[C@@H]2CCCN2C(=O)[C@H](Cc2ccc(O)cc2)NC(=O)CNC(=O)CNC(=O)c2ccc(-c3c4ccc(=O)cc-4oc4cc(O)ccc34)c(C(=O)O)c2)CSCc2cccc(c2)CSC[C@@H](C(=O)N[C@@H](Cc2cnc[nH]2)C(=O)N[C@@H](CC(C)C)C(=O)N[C@@H](CCC(N)=O)C(=O)N[C@@H](CCCNC(=N)N)C(=O)N[C@H](C(=O)N[C@H](C(=O)N[C@@H](CC(C)C)C(N)=O)[C@@H](C)CC)C(C)C)NC(=O)[C@H](CC(=O)O)NC(=O)[C@H](CC(C)C)NC1=O` (X1-GGYPECILDCHLQRVIL-NH2; linker 6-10 via mXylylene) was tested, and the Activity [1] was “Active” and the Kd [2] was 18 nM.
